We go through ten compounds from ChEMBL document CHEMBL3808373 (Bioorg Med Chem Lett, 2016).

One may read the half-life as how long it takes for the measured level to halve. A lower half-life goes with rapid decline. The term IC50 denotes the concentration at which inhibition is half-maximal. What is called logD is lipophilicity at a set pH, counting ionised and neutral species. A low value points to a more hydrophilic compound.

The structures appear in SMILES notation.

Series [1] can be described thus: Half life in dog microsomes. The class given is ADME, Canis lupus familiaris, Microsome.
In series [2] the target is T1, Sodium channel protein type 5 subunit alpha (Homo sapiens, UniProt Q14524). Conditions: HEK293, human, read-out: INH.
T1 sequence (Q14524 whole entry): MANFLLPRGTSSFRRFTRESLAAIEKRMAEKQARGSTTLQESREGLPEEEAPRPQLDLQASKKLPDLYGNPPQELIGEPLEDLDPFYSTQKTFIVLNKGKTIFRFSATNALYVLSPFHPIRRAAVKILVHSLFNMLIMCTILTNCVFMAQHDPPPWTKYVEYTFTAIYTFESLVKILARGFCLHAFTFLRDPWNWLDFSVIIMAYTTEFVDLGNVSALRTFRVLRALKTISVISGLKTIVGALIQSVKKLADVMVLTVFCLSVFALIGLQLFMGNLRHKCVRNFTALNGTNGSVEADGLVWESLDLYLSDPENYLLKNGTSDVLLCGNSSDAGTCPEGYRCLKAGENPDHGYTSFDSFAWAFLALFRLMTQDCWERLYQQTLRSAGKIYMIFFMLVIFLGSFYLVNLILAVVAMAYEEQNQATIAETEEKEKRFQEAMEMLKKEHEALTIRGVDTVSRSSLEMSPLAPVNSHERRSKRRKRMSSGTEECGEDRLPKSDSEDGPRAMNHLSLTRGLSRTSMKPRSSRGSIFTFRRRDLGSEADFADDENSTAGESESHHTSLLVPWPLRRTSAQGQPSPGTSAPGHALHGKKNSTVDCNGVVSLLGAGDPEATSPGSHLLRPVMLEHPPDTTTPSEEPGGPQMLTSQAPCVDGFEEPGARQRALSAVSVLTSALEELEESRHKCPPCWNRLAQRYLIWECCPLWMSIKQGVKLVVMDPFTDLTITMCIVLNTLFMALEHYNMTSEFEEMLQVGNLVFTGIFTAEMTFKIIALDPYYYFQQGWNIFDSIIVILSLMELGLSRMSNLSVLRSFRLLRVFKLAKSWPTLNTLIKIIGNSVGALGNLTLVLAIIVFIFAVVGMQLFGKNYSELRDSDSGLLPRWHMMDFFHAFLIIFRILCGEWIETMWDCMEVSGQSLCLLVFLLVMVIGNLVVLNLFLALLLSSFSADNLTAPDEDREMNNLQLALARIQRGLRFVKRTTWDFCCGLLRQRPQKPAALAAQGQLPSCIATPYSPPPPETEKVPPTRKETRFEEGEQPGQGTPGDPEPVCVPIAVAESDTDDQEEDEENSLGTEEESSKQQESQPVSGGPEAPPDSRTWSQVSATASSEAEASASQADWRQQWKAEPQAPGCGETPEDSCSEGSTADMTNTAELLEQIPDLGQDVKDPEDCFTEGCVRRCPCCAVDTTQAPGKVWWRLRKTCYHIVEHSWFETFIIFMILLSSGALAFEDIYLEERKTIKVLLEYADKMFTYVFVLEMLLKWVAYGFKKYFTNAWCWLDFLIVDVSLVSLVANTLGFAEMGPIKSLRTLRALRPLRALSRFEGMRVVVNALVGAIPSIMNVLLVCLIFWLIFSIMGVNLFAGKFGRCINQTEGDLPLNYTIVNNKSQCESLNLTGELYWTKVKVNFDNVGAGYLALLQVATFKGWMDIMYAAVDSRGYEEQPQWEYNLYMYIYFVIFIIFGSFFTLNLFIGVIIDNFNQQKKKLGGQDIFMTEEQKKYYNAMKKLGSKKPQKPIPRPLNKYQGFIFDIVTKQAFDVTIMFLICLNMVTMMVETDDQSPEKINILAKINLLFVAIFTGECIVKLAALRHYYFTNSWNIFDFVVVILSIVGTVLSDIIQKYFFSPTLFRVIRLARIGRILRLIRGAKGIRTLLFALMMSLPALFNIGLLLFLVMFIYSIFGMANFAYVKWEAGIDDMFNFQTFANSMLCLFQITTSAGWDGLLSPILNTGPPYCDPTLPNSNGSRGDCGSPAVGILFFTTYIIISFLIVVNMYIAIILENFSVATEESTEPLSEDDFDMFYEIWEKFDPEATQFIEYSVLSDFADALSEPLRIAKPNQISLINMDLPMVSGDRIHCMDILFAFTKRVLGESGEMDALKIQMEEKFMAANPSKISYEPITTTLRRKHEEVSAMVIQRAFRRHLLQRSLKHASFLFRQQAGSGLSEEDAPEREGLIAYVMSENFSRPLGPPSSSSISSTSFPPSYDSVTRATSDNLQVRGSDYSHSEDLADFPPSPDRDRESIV
Description: Inhibition of 0.1 Hz stimulated human Nav1.5alpha expressed in HEK293 cells assessed as inhibition of late sodium current at 10 uM with 3 compound additions for 7 to 8 mins at holding potential -120 mV in presence of late sodium current activator tefluthrin/ATX2 measured immediately after third compound addition by PatchXpress method relative to control
A short description of series [3]: Half life in human microsomes. The class given is ADME, Microsome.
In series [4] the target is T1, Sodium channel protein type 5 subunit alpha. Nature of the series: Inhibition of 0.1 Hz stimulated human Nav1.5alpha expressed in HEK293 cells assessed as inhibition of late sodium current with 3 compound additions for 7 to 8 mins at holding potential -120 mV in presence of late sodium current activator tefluthrin/ATX2 measured immediately after third compound addition by PatchXpress method. The class given is cell-based.

The target in series [5] is Sodium channel protein type 1 subunit alpha (Homo sapiens, UniProt P35498). Nature of the series: Inhibition of 10 Hz stimulated Nav1.1 (unknown origin) assessed as inhibition of peak sodium current at 10 uM by automated patch clamp method relative to control. (Patch clamp records ionic current or voltage across a cell membrane.)
The nature of series [6]: Half life in rat microsomes. The class given is ADME, Microsome.
Series [7] concerns the target T2, Nav1.5 (peak sodium current, use-dependent block) (Homo sapiens, UniProt Q14524). Nature of the series: Inhibition of 3 Hz stimulated human Nav1.5alpha expressed in HEK293 cells assessed as use dependent block of peak sodium current at 1 uM with 3 compound additions at 60 sec intervals at holding potential -100 mV incubated for 320 sec after third compound addition followed by second period of 3 Hz stimulation by PatchXpress method relative to control. The class given is cell-based. Conditions: HEK293 cells expressing human Nav1.5alpha.

Another series is filed under the species Oryctolagus cuniculus. Nature of the series: Inhibition of Nav1.5 in isolated rabbit heart assessed as inhibition of ATX2-induced prolongation of mean action potential duration at 10 to 100000 nM relative to control.
The next series deals with Heart. Nature of the series: Protection against […]/clofilium-induced ventricular arrhythmias in isolated rabbit heart assessed as torsade des pointes at 14 uM relative to control. The class given is functional, Oryctolagus cuniculus, Cardiac ventricle.
Series [8] has as its target T2, Nav1.5 (peak sodium current, use-dependent block). Nature of the series: Inhibition of 3 Hz stimulated human Nav1.5alpha expressed in HEK293 cells assessed as use dependent block of peak sodium current at 10 uM with 3 compound additions at 60 sec intervals at holding potential -100 mV incubated for 320 sec after third compound addition followed by second period of 3 Hz stimulation by PatchXpress method relative to control. The class given is cell-based. Conditions: HEK293 cells expressing human Nav1.5alpha.

Series [9] is described as follows: Lipophilicity, log D of compound. The class given is physicochemical. Conditions: octanol/water.

T2 sequence (Q14524 whole entry): as above

On to `Cc1coc(Cn2nc3ccc(-c4ccc(OC(F)(F)F)cc4)cn3c2=O)n1`, for which the half-life in series [1] was 160 min; in series [3] it was 144 min; in series [6], 41 min. Also, the inhibition at 10 µM in series [2] is not below 70%. In addition, the concentration for half-maximal inhibition (IC50) in [4] amounted to 2.5 µM. Besides, the inhibition in [5] came to 28%.
Consider `O=c1n(Cc2nnc(C3CC3)o2)nc2ccc(-c3ccc(Oc4ccc(F)cc4)cc3)cn12`, for which the results for the half-life in series [1], in [3] and in series [6] were 287 min, 395 min and 395 min, respectively. In addition, the inhibition at 10 µM in series [2] is not below 70%. The IC50 in [4] was 740 µM. In series [5], the inhibition amounted to 56%. In addition, the inhibition at 320 s, 1 µM in [7] is 69%.
For `O=c1[nH]nc2ccc(-c3ccc(Oc4ccc(F)cc4)cc3)cn12`, the half-life in series [1] stood at 273 min; in [3], 395 min; in [6] it was 43 min. In series [2], the inhibition at 10 µM was not below 70%. Further, the IC50 in series [4] stood at 1900 µM. For the same compound, the inhibition in series [5] turned out to be 40%. In addition, the inhibition at 320 s, 1 µM in series [7] was found to be 28%.
On to `Cc1cnc(Cn2nc3ccc(-c4ccc(OC(F)(F)F)cc4)cn3c2=O)o1`, for which the half-life amounted to 228 min in [1], 288 min in series [3] and 24 min in [6]. Also, the inhibition at 10 µM in series [2] was not below 70%. For the same compound, the IC50 in [4] stood at 2.5 µM. The inhibition in series [5] came to 44%.
In the case of `Cc1cc(Cn2nc3ccc(-c4ccc(OC(F)(F)F)cc4)cn3c2=O)on1`, the IC50 in series [4] is more than 10 µM.
On to `CCc1noc(Cn2nc3ccc(-c4ccc(OC(F)(F)F)cc4)cn3c2=O)n1`, for which, in series [2], the inhibition at 10 µM was not below 70%. For the same compound, the IC50 in series [4] amounted to 4 µM.
As for `COc1ccccc1OCC(O)CN1CCN(CC(=O)Nc2c(C)cccc2C)CC1` (configuration not stated) [RANOLAZINE], the inhibition in the series filed under Oryctolagus cuniculus worked out at 60%. In addition, the Activity in the series with Heart is on record as 40%.
As for `O=c1[nH]nc2ccc(-c3ccc(OC(F)(F)F)cc3)cn12`, the half-life in series [1] was 190 min; in [3], 390 min; in series [6], 89 min. For the same compound, the inhibition at 10 µM in series [2] was not below 70%. In [4], the IC50 was determined as 1.9 µM. The inhibition at 320 s, 10 µM in series [8] is 24%.
On to `Cc1noc(Cn2nc3ccc(-c4ccc(Oc5ccc(Cl)cc5)cc4)cn3c2=O)n1`, for which the half-life in series [1] stood at 94 min; in [3], 45 min; in series [6], 34 min. The inhibition at 10 µM in series [2] is not below 70%. For the same compound, the pH-dependent lipophilicity (logD) in series [9] was 3.4. For the same compound, in [4], the concentration for half-maximal inhibition (IC50) worked out at 134 µM. Further, in series [5], the inhibition was 42%. In addition, in [7], the inhibition at 320 s, 1 µM was determined as 47%.
As for `Cc1nc(Cn2nc3ccc(-c4ccc(Oc5ccc(F)cc5)cc4)cn3c2=O)no1`, the half-life in series [1] was 167 min; in series [3], 207 min; in [6], 145 min. Also, the inhibition at 10 µM in series [2] is not below 70%. Besides, the IC50 in series [4] is 541 µM. Further, the inhibition in series [5] is 65%. In addition, in series [7], the inhibition at 320 s, 1 µM is 46%.
